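Assay format: 96-well plates, 48-hour exposure. At the TGI there is no net growth.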
Key:
Assay in all cases: NCI tumour cell line growth inhibition, 48 h
[1] = tested on: SN12K1 renal
[2] = tested on: DMS 273 small cell lung
[3] = tested on: P388 leukemia
[4] = tested on: XF 498 CNS
[5] = tested on: LXFL 529 NSCLC
[6] = tested on: P388/ADR leukemia
[7] = tested on: RXF-631 renal

In the case of `COc1ccc(OCC(C)(C)O)cc1`, the TGI [1] is reported as > 100 µM, the TGI [2] is reported as > 100 µM and the TGI [3] is reported as > 100 µM. The TGI [4] was > 100 µM.
In the case of `COc1ccc2c(c1)c(=O)c1c(NCCCN(C)C)ccc3ncn2c31`, the TGI [2] is reported as 15.5 µM, the TGI [4] is reported as 18.9 µM and the TGI [5] is reported as 19.8 µM.
In the case of `CCOC(=O)/C=C/c1c[nH]c(=O)[nH]c1=O`, the TGI [1] is reported as > 75 µM, the TGI [6] is reported as > 75 µM and the TGI [2] is reported as > 75 µM. The TGI [3] was > 75 µM and the TGI [4] was > 75 µM.
For `CCOC(=O)C1=C(C)N(C2OC(COC(C)=O)C(OC(C)=O)C(OC(C)=O)C2OC(C)=O)C(=O)NC1c1ccccc1` (stereo not drawn), the TGI [7] was > 100 µM and the TGI [5] was > 100 µM.
In the case of `COc1ccc2c(c1)C=C(C(C)(C)C)NS2(=O)=O`, the TGI [7] is reported as > 100 µM, the TGI [2] is reported as > 100 µM and the TGI [5] is reported as > 100 µM.
In the case of `CC(=O)OCc1nnn2c1CCC2`, the TGI [4] is reported as > 100 µM and the TGI [5] is reported as > 100 µM.
`CC(c1ccccc1)C(O)S(=O)(=O)O` (stereo not drawn) was tested, and the TGI [7] was > 100 µM, the TGI [2] was > 100 µM and the TGI [4] was > 100 µM. The TGI [5] was > 100 µM.
